Holding throughout (type): in vivo, Wistar-Kyoto (WKY) rats
Data set [1] deals with CCI rats. The data set can be described thus: Mechanical allodynia in CCI (sciatic nerve ligation) neuropathic pain rats. The note with it: 15 mg/kg DM or 15 mg/kg equivalent of DM, intraperitoneally once daily for a week from day 8 after CCI; examined at end of one-week treatment; compared with corresponding baseline. As for the experimental part:
(§1) Adult male WKY rats weighing 200-250 g. Rats were housed individually in each cage and the experiments started at least three days after their arrival. The surgical procedure was performed under pentobarbital anesthesia (50 mg/kg, intraperitoneally). CCI rats were produced by loosely ligating the common sciatic nerve on one side according to the method. Briefly, the right sciatic nerve was exposed in themid-thigh and separated from the adjacent tissue. Four loose ligatures using 4-0 chromic gut sutures were made around the dissected nerve with a 1.0-1.5 mm interval between each pair of ligatures. The skin wound was closed using stainless steel pins. In sham rats, the same surgical procedure was followed except for nerve ligation. DM and formula I (1-1) were diluted in 10% DMSO. The MDSO (10%) was also used for vehicle control.
(§2) The drugs DM (15 mg/kg for DM) or the formula I (1-1) (15 mg/kg equivalent of DM) was given intraperitoneally once daily for a week, beginning in the second week after CCI (i.e., day 8 after CCI).

Data set [2] relates to CCI rats. The data set can be described thus: Motor deficits or sedation judged by gait and overall appearance. The note with it: 15 mg/kg DM or equivalent, intraperitoneally once daily for a week. Here is the method:
as §2

Data set [3] concerns CCI rats. Nature of the data set: Thermal hyperalgesia in CCI (sciatic nerve ligation) neuropathic pain rats. The note with it: 15 mg/kg DM or 15 mg/kg equivalent of DM, intraperitoneally once daily for a week from day 8 after CCI; examined on day 15 after CCI; compared with corresponding baseline. As for the experimental part:
as §1, §2

As to `COc1ccc2c(c1)[C@]13CCCC[C@@H]1[C@H](C2)N(C)CC3` [DM, Dextromethorphan], the reducing mechanical allodynia entry in the data set on CCI rats [1] is recorded as “effective only in reducing mechanical allodynia”. Further, the “motor deficits or sedation” value in the data set on CCI rats [2] was “no motor deficits or sedation”. Moreover, in the data set on CCI rats [3], the reducing thermal hyperalgesia entry was “only marginally effective”.

Take `CN1CC[C@@]23CCCC[C@@H]2[C@@H]1Cc1ccc(OC(=O)CCCCCC[C@]2(C)CCSS2)cc13` [formula I (1-1)]: the reducing mechanical allodynia entry in the data set with CCI rats [1] is listed as “significantly improved mechanical allodynia”. Besides, in the data set on CCI rats [2], the “motor deficits or sedation” value was “no motor deficits or sedation”. Moreover, the reducing thermal hyperalgesia result in the data set with CCI rats [3] is listed as “reduced thermal hyperalgesia”.

The values above are taken from patent publication US9242939B2, “Compositions and methods for the treatment of respiratory disorders” (CELLIX BIO PRIVATE LIMITED, priority 2012, dated 2016).
